Source: patent US9518065B2, “IRAK inhibitors and uses thereof” (NIMBUS IRIS, INC., priority 2013, dated 2016)
pIC50: −log10 of the molar value.

Target: T1, IRAK4 (Homo sapiens, UniProt Q9NWZ3)
T1 construct: purchased CARNA Bioscience 09-145
T1 sequence (Q9NWZ3 1-460): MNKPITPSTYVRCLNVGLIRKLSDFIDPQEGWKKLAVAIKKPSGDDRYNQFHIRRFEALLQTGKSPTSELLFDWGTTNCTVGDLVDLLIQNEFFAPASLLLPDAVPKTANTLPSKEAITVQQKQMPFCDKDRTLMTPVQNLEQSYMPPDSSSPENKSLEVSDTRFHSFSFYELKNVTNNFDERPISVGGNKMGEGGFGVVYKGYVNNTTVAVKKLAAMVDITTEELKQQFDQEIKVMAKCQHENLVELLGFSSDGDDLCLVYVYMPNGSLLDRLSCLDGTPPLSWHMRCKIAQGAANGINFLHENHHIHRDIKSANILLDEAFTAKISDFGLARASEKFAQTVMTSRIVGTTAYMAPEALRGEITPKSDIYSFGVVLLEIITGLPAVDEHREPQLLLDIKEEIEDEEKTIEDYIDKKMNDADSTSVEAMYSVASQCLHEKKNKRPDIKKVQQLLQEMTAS
Assay: IRAK-4 activity inhibition assay (Caliper)
Type: biochemical
Settings: 3.5 nM IRAK4, 37 μM ATP, 1.5 μM Peptide 8
Protocol: A 1× kinase base buffer was prepared from 50 mM HEPES, pH 7.5 and 0.0015% Brij-35. A stop buffer was prepared from 100 mM HEPES, pH 7.5, 0.015% Brij-35, 0.2% Coating Reagent #3, and 50 mM EDTA.
Test compound was diluted to 50× of the final desired highest inhibitor concentration in reaction by 100% DMSO. 100 ul of this compound dilution was transferred to a well in a 96-well plate. For example, if desired highest inhibitor concentration in IC50 determination is 100 uM, then prepare 5000 uM of compound DMSO solution in this step.
Test compound was serially diluted by transferring 30 μl to 60 μl of 100% DMSO in the next well and so forth for a total of 10 concentrations. 100 μl of 100% DMSO was added to two empty wells for no compound control and no enzyme control in the same 96-well plate.
A new 96-well plate was marked as intermediate plate. 5 μl of compound serial dilution was transferred from source plate to the corresponding wells of the intermediate plate. 45 μl of 1× kinase base buffer (KB buffer) was added to each well of the intermediate plate. The intermediate plate was placed for 10 min on a shaker.
5 μl of each well was transferred from the 96-well intermediate plate to a 384-well plate in duplicates. For example, A1 of the 96-well plate is transferred to A1 and A2 of the 384-well plate. A2 of the 96-well plate is transferred to A3 and A4 of the 384-well plate, and so on.
IRAK4 and DTT in 1× kinase base buffer was added. The 2.5× enzyme mix contained 8.8 nM IRAK4 and 5 mM DTT.
Peptide 8, ATP, MgCl2 and MnCl2 were added in the 1× kinase base buffer. The 2.5× peptide mix contained 3.75 μM peptide 8, 92.5 μM ATP, 12.5 mM MgCl2 and 2.5 mM MnCl2.
Assay plate already contained 5 μl of compound in 10% DMSO. Added 10 μl of 2.5× enzyme solution to each well of the 384-well assay plate, except no enzyme control wells. The final concentration of IRAK4 in reaction was 3.5 nM. Added 10 μl of 1× kinase base buffer to no enzyme control wells in the assay plate. Incubated at room temperature for 10 min.
Added 10 μl of 2.5× peptide solution to each well of the 384-well assay plate. The final concentration of Peptide 8 and ATP was 1.5 μM and 37 μM, respectively. Incubated at 28° C. for 40 minutes. Added 25 μl of stop buffer to stop reaction. Collected data on Caliper.
Copied conversion % data from Caliper program. Converted conversion % values to percent inhibition values. Percent inhibition=(max-conversion %)/(max-min)*100, where “max” means the conversion % of DMSO control and “min” means the conversion % of no enzyme control.
The compound numbers correspond to the compound numbers in Table 1. Compounds having an activity designated as “A” provided an IC50≦1 μM; compounds having an activity designated as “B” provided an IC50 of 1-5 μM; compounds having an activity designated as “C” provided an IC50 of ≧5 μM. “NA” stands for “not assayed.”

pIC50	Compound
5.30 to 6.00	CCc1nc2c(N[C@H]3CC[C@H](N4CCC(F)(F)CC4)CC3)nc(Nc3cnn(C)c3)nc2s1 [Compound I-11, N7-((1r,4r)-4-(4,4-difluoropiperidin-1-yl)cyclohexyl)-2-ethyl-N5-(1-methyl-1H-pyrazol-4-yl)thiazolo[5,4-d]pyrimidine-5,7-diamine]
≥ 6.00	CC(=O)c1nc2c(N[C@H]3CC[C@H](N4CCOCC4)CC3)nc(Nc3cnn(C)c3)nc2s1 [Compound I-41, 1-(5-((1-methyl-1H-pyrazol-4-yl)amino)-7-(((1r,4r)-4-morpholinocyclohexyl)amino)thiazolo[5,4-d]pyrimidin-2-yl)ethan-1-one]
≥ 6.00	Cn1cc(Nc2nc(N[C@H]3CC[C@H](N4CCOCC4)CC3)c3nc(C(F)(F)F)sc3n2)cn1 [Compound I-44, N5-(1-methyl-1H-pyrazol-4-yl)-N7-((1r,4r)-4-morpholino-cyclohexyl)-2-(trifluoromethyl)thiazolo[5,4-d]pyrimidine-5,7-diamine]
≥ 6.00	Cn1cc(Nc2nc(N[C@H]3CC[C@H](N4CCOCC4)CC3)c3nc(C(F)F)sc3n2)cn1 [Compound I-45, 2-(difluoromethyl)-N5-(1-methyl-1H-pyrazol-4-yl)-N7-((1r,4r)-4-morpholinocyclohexyl)thiazolo[5,4-d]pyrimidine-5,7-diamine]
≥ 6.00	Cn1cc(Nc2nc(N[C@H]3CC[C@H](N4CCOCC4)CC3)c3ncsc3n2)cn1 [Compound I-46, N5-(1-methyl-1H-pyrazol-4-yl)-N7-((1r,4r)-4-morpholinocyclo-hexyl)thiazolo[5,4-d]pyrimidine-5,7-diamine]
≥ 6.00	CC(C)c1nc2c(N[C@H]3CC[C@H](N4CCOCC4)CC3)nc(Nc3cnn(C)c3)nc2s1 [Compound I-47, 2-isopropyl-N5-(1-methyl-1H-pyrazol-4-yl)-N7-((1r,4r)-4-morpholinocyclohexyl)thiazolo[5,4-d]pyrimidine-5,7-diamine]
≥ 6.00	Cn1cc(Nc2nc(N[C@H]3CC[C@H](N4CCOCC4)CC3)c3nc(C(C)(F)F)sc3n2)cn1 [Compound I-48, 2-(1,1-difluoroethyl)-N5-(1-methyl-1H-pyrazol-4-yl)-N7-((1r,4r)-4-morpholinocyclohexyl)thiazolo[5,4-d]pyrimidine-5,7-diamine]
≥ 6.00	Cn1cc(Nc2nc(N[C@H]3CC[C@H](N4CCOCC4)CC3)c3nc(C4CC4)sc3n2)cn1 [Compound I-49, 2-cyclopropyl-N5-(1-methyl-1H-pyrazol-4-yl)-N7-((1r,4r)-4-morpholinocyclohexyl)thiazolo[5,4-d]pyrimidine-5,7-diamine]
5.30 to 6.00	Cn1cc(Nc2nc(N[C@H]3CC[C@H](N4CCOCC4)CC3)c3nc(C(C)(C)C)sc3n2)cn1 [Compound I-50, 2-(tert-butyl)-N5-(1-methyl-1H-pyrazol-4-yl)-N7-((1r,4r)-4-morpholinocyclohexyl)thiazolo[5,4-d]pyrimidine-5,7-diamine]
≥ 6.00	c1nc2c(N[C@H]3CC[C@H](N4CCOCC4)CC3)nc(Nc3cnn(C4CCOCC4)c3)nc2s1 [Compound I-51, N7-((1r,4r)-4-morpholinocyclohexyl)-N5-(1-(tetrahydro-2H-pyran-4-yl)-1H-pyrazol-4-yl)thiazolo[5,4-d]pyrimidine-5,7-diamine]
≥ 6.00	c1nc2c(N[C@H]3CC[C@H](N4CCOCC4)CC3)nc(Nc3cnn(CC4CCOCC4)c3)nc2s1 [Compound I-52, N7-((1r,4r)-4-morpholinocyclohexyl)-N5-(1-((tetrahydro-2H-pyran-4-yl)methyl)-1H-pyrazol-4-yl)thiazolo[5,4-d]pyrimidine-5,7-diamine]
≥ 6.00	CC(C)n1cc(Nc2nc(N[C@H]3CC[C@H](N4CCOCC4)CC3)c3ncsc3n2)cn1 [Compound I-53, N5-(1-isopropyl-1H-pyrazol-4-yl)-N7-((1r,4r)-4-morpholino-cyclohexyl)thiazolo[5,4-d]pyrimidine-5,7-diamine]
≥ 6.00	OCCn1cc(Nc2nc(N[C@H]3CC[C@H](N4CCOCC4)CC3)c3ncsc3n2)cn1 [Compound I-54, 2-(4-((7-(((1r,4r)-4-morpholinocyclohexyl)amino)thiazolo[5,4-d]pyrimidin-5-yl)amino)-1H-pyrazol-1-yl)ethan-1-ol]
≥ 6.00	[2H]C([2H])([2H])c1nc2c(N[C@H]3CC[C@H](N4CCOCC4)CC3)nc(Nc3cnn(C)c3)nc2s1 [Compound I-58, 2-(methyl-d3)-N5-(1-methyl-1H-pyrazol-4-yl)-N7-((1r,4r)-4-morpholinocyclohexyl)thiazolo[5,4-d]pyrimidine-5,7-diamine]

Further lines, the molecule ahead of its results:

Compound	pIC50
CCc1nc2c(N[C@H]3CC[C@H](N(C)C)CC3)ncnc2s1 [Compound I-1, (1r,4r)-N1-(2-ethylthiazolo[5,4-d]pyrimidin-7-yl)-N4,N4-dimethylcyclohexane-1,4-diamine]	5.30 to 6.00
CC(C)c1nc2c(N[C@H]3CC[C@H](N(C)C)CC3)ncnc2s1 [Compound I-2, (1r,4r)-N-1-(2-isopropylthiazolo[5,4-d]pyrimidin-7-yl)-N4,N4-dimethylcyclohexane-1,4-diamine]	5.30 to 6.00
CCc1nc2c(O[C@H]3CC[C@H](N(C)C)CC3)ncnc2s1 [Compound I-3, (1r,4r)-4-((2-ethylthiazolo[5,4-d]pyrimidin-7-yl)oxy)-N,N-dimethylcyclo-hexanamine]	≤ 5.30
Cc1nc2c(N[C@H]3CC[C@H](N(C)C)CC3)ncnc2s1 [Compound I-4, (1r,4r)-N1,N1-dimethyl-N4-(2-methylthiazolo[5,4-d]pyrimidin-7-yl)cyclo-hexane-1,4-diamine]	5.30 to 6.00
CCc1nc2c(N[C@H]3CC[C@H](N4CCOCC4)CC3)ncnc2s1 [Compound I-5, 2-ethyl-N-((1r,4r)-4-morpholinocyclohexyl)thiazolo[5,4-d]pyrimidin-7-amine]	5.30 to 6.00
CCc1nc2c(N(CC)[C@H]3CC[C@H](N4CCOCC4)CC3)ncnc2s1 [Compound I-6, N,2-diethyl-N-((1r,4r)-4-morpholinocyclohexyl)thiazolo[5,4-d]pyrimidin-7-amine]	≤ 5.30
CCc1nc2c(N[C@H]3CC[C@H](N(C)CC(=O)N4CCCC4)CC3)nc(Nc3cnn(C)c3)nc2s1 [Compound I-15, 2-(((1r,4r)-4-((2-ethyl-5-((1-methyl-1H-pyrazol-4-yl)amino)-thiazolo[5,4-d]pyrimidin-7-yl)amino)cyclohexyl)(methyl)amino)-1-(pyrrolidin-1-yl)ethan-1-one]	≥ 6.00
CCc1nsc2ncnc(N[C@H]3CC[C@H](N4CCOCC4)CC3)c12 [Compound I-20, 3-ethyl-N-((1r,4r)-4-morpholinocyclohexyl)isothiazolo[5,4-d]pyrimidin-4-amine]	5.30 to 6.00
CCc1nc2c(N[C@H]3CC[C@H](N4CCOCC4)CC3)nc(N)nc2s1 [Compound I-31, 2-ethyl-N7-((1r,4r)-4-morpholinocyclohexyl)thiazolo[5,4-d]pyrimidine-5,7-diamine]	≤ 5.30
Cc1nc2c(N[C@H]3CC[C@H](N4CCOCC4)CC3)nc(N)nc2s1 [Compound I-43, 2-methyl-N7-((1r,4r)-4-morpholinocyclo-hexyl)thiazolo[5,4-d]pyrimidine-5,7-diamine]	≤ 5.30
Cc1nc2c(O[C@H]3CC[C@H](N4CCOCC4)CC3)nc(Nc3cnn(C(C)C)c3)nc2s1 [Compound I-57, N-(1-isopropyl-1H-pyrazol-4-yl)-2-methyl-7-(((1r,4r)-4-morpholino-cyclohexyl)oxy)thiazolo[5,4-d]pyrimidin-5-amine]	≥ 6.00
